Laboratory results: ChEMBL document CHEMBL1201862, “PubChem BioAssay data set” (2004)
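Protocol summary: plate cells (96-well), add compound at 5 concentrations, incubate 48 h, interpolate endpoints linearly. The concentration for 50% growth inhibition is given as GI50.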 Activity calls are given as the source filed them. Rule as the data show it: active = GI50 up to about 1.1 µM and inactive = higher.

What was measured:
Assay in all cases: NCI tumour cell line growth inhibition, 48 h
[1] = tested on: 786-0
[2] = tested on: A498
[3] = tested on: ACHN
[4] = tested on: HCT-116
[5] = tested on: HOP-92
[6] = tested on: K562
[7] = tested on: KM12
[8] = tested on: LOX IMVI
[9] = tested on: M14
[10] = tested on: MCF7
[11] = tested on: MOLT-4
[12] = tested on: NCI/ADR-RES
[13] = tested on: OVCAR-3
[14] = tested on: RXF 393
[15] = tested on: SF-539
[16] = tested on: SN12C
[17] = tested on: U-251
[18] = tested on: UO-31
[19] = tested on: CCRF-CEM
[20] = tested on: HCC 2998

Measured: GI50

Cn1c(=O)c2nc(CSCc3ccccc3)[nH]c2n(C)c1=O
inactive: [1] > 100 µM | [2] > 100 µM | [3] > 100 µM | [4] > 100 µM | [5] > 100 µM | [6] 78 µM | [7] > 100 µM | [8] > 100 µM | [9] > 100 µM | [10] > 100 µM | [11] > 100 µM | [12] > 100 µM | [13] > 100 µM | [14] > 100 µM | [15] > 100 µM | [16] 80.5 µM | [17] > 100 µM | [18] 41.1 µM

CC(C)c1cc(CN(C)C)c(O)c(C(C)(C)C)c1
inactive: [1] 18.5 µM | [2] 20.7 µM | [3] 16.8 µM | [19] 16.4 µM | [20] 16.1 µM | [4] 36.9 µM | [7] 21.4 µM | [8] 17.4 µM | [9] 28.4 µM | [10] 16.5 µM | [11] 26.2 µM | [12] 65.3 µM | [13] 17.4 µM | [14] 18.8 µM | [16] 18.9 µM | [17] 16.4 µM | [18] 23.1 µM

O=C1CSC(/C=C/c2ccccc2)N1c1ccc(-n2c(-c3ccccc3)nc3ccccc3c2=O)cc1 (centres undefined)
inactive: [1] > 100 µM | [2] > 100 µM | [3] > 10 µM | [19] 66.1 µM | [20] 99.5 µM | [4] > 100 µM | [5] > 100 µM | [6] > 100 µM | [7] 33.1 µM | [8] 95.3 µM | [9] > 100 µM | [10] 52.2 µM | [11] 30.9 µM | [12] 59.2 µM | [13] > 100 µM | [15] 71.4 µM | [16] > 100 µM | [17] > 100 µM | [18] 16.8 µM

O=c1[nH]nc(Cc2ccccc2)n1/N=C/c1c[nH]c2ccccc12
inactive: [1] 43 µM | [2] > 100 µM | [3] > 100 µM | [19] > 100 µM | [20] > 100 µM | [4] > 100 µM | [5] > 100 µM | [6] > 100 µM | [7] > 100 µM | [8] > 100 µM | [9] > 100 µM | [10] > 100 µM | [11] > 100 µM | [12] 82.6 µM | [13] > 100 µM | [15] > 100 µM | [16] > 100 µM | [17] 52.1 µM | [18] > 100 µM

OC1CC2CCCN(CCc3c1[nH]c1ccccc31)C2 (centres undefined)
inactive: [1] > 100 µM | [2] > 100 µM | [3] > 100 µM | [19] > 100 µM | [20] > 100 µM | [4] > 100 µM | [5] > 100 µM | [6] > 100 µM | [7] > 100 µM | [8] > 100 µM | [10] > 100 µM | [12] > 100 µM | [15] > 100 µM | [16] > 100 µM | [17] > 100 µM | [18] > 100 µM

CN(C)/C=N/NC(=O)/C(C#N)=C/N(C)C
inactive: [1] > 100 µM | [2] > 100 µM | [3] > 100 µM | [19] > 100 µM | [20] > 100 µM | [4] > 100 µM | [6] > 100 µM | [7] > 100 µM | [8] > 100 µM | [9] > 100 µM | [10] > 100 µM | [11] > 100 µM | [12] > 100 µM | [13] > 100 µM | [14] > 100 µM | [15] 64.7 µM | [16] > 100 µM | [17] > 100 µM | [18] > 100 µM

C[C@]12CCC(=O)C=C1CC[C@@H]1[C@@H]2CC[C@]2(C)C(=O)[C@H](n3ccnc3)C[C@@H]12
inactive: [1] > 100 µM | [2] > 100 µM | [3] > 100 µM | [19] 58.6 µM | [4] > 100 µM | [5] > 100 µM | [6] 75.3 µM | [7] > 100 µM | [8] > 100 µM | [9] > 100 µM | [10] > 100 µM | [11] 35.2 µM | [12] > 100 µM | [14] > 100 µM | [15] > 100 µM | [16] > 100 µM | [17] > 100 µM | [18] > 100 µM

Nc1cc(F)ccc1CC(=O)O
inactive: [1] > 100 µM | [2] > 100 µM | [3] > 100 µM | [19] > 100 µM | [20] > 100 µM | [4] > 100 µM | [6] > 100 µM | [7] > 100 µM | [8] > 100 µM | [9] > 100 µM | [10] > 100 µM | [11] > 100 µM | [12] > 100 µM | [14] > 100 µM | [15] > 100 µM | [16] > 100 µM | [17] > 100 µM | [18] > 100 µM
